According to patent publication US12516285B2, “Small peptide MIPEP166I and use thereof in plant tissue culture” (Nanjing Forestry University, priority 2023, dated 2026):
Marks after values point to notes of the source that are not given here.

Tests used:
Assay type in all cases: in vivo, 84K poplar (Populus alba×Populus tremula var. glandulosa)
84K poplar = test: Adventitious root formation and elongation in tissue culture on peptide-treated MS medium; details: 5 μM in MS medium, plants cultured for two weeks, n=15
Experimental: (§1) The three synthetic peptides were each added to MS medium at a concentration of 5 μM as exogenous treatments, while sterile water was chosen as the blank control (CK) treatment (FIG. 1B).
This may be due to the exogenous peptides acting as biological stimulants and osmotic agents, broadly inducing miRNA expression, with the lowest expression of miR166i observed in the CK samples.

miR166i = test: RT-qPCR of miR166i in 84K poplar after exogenous peptide treatment
Experimental: as §1
(§2) To investigate the possible role of miPEP166i in its corresponding miRNA biogenesis, RT-qPCR was first used to analyze the abundance changes of pri-miR166i and miR166i in 84K poplar after 24 hours of exogenous treatment.
(§3) During the process of adventitious root elongation, samples collected at 6, 9, and 12 days after cultivation (T1, T2, and T3 stages) were used to detect the expression of miR166i and its targets, aiming to explore the dynamic regulatory pattern of exogenous miPEP166i treatment (FIG. 3A). Due to the equivalence of NSP and IP treatments (FIG. 2G and FIG. 2H), only samples treated with CK, NSP, and miPEP, along with control samples, were used for quantitative miRNA expression and transcriptome sequencing analysis.

PagREV = test: Expression of miR166i target gene PagREV (RT-qPCR and RNA-seq)
From the text: as §3
(§4) RNA-seq libraries were constructed from the root systems of 84K poplar to investigate the effects of miPEP166i induction on miR166i targets.

[1] = tested on: Genes in Hormone Metabolism and Signaling Pathways; test: Time-course transcriptome (RNA-seq), hormone-related genes
From the text: as §3, §4
(§5) Using time-course transcriptome data from the root systems of 84K poplar, we explored the potential downstream gene expression responses induced by exogenous application of miPEP166i. By cross-comparing miPEP treatment with mock treatment and miPEP treatment with NSP treatment, we identified 114, 130, and 547 differentially expressed genes (DEGs) (|log2FC|>1 and FDR<0.05) at the T1, T2, and T3 stages, respectively. […] These genes are controlled by the master switches of HD-ZIP III transcription factors.
Multiple intersections between hormone signaling and HD-ZIP III activity occur during root elongation. Numerous plant hormone-related genes were found within the DEG set, including genes related to auxin and cytokinin synthesis, (De)conjugation, transport, and signaling (Table 1).

pri-miR166i = test: RT-qPCR of pri-miR166i in 84K poplar stem explants after exogenous peptide treatment; details: 5 μM in MS medium, 24 hours, vs control treatments
Experimental: as §1, §2

[2] = tested on: root systems of 84K poplar; test: Time-course transcriptome (RNA-seq), differentially expressed genes; details: for differentially expressed genes (DEGs): miPEP vs mock and vs NSP, |log2FC|>1 and FDR<0.05
From the text: as §3, §4, §5

PagHB8 = test: Expression of miR166i target gene PagHB8 (RT-qPCR and RNA-seq)
From the text: as §3, §4

[3] = T1 stage (6 days after culture), P<0.05
[4] = T2 and T3 stages (9 and 12 days after culture)
[5] = T3 stage (12 DAC), miPEP vs NSP

Substance: IP: interference control peptide, same amino acids but different sequence, MSDFGGQPTLPFCLSSLNPKSTLK (SEQ ID NO.5)
- length of adventitious roots (84K poplar): equivalence
- number of adventitious roots (84K poplar): equivalence
- expression of miR166i compared to NSP samples (miR166i; 5 μM in MS medium, stem explants, 24 hours): slightly higher expression of miR166i was observed after IP treatment compared to its expression in NSP samples, the difference was not significant

Substance: NSP: non-specific control peptide of 15 amino acids, CLLNCPIYWQQLREX (SEQ ID NO.4)
- length of adventitious roots (84K poplar): equivalence
- number of adventitious roots (84K poplar): equivalence

Substance: miPEP166i: small peptide encoded by pri-miRNA166i of 84K poplar, amino acid sequence SEQ ID NO.3 (MDGQTPCSLPSLSFGPLFLSNKTK; Populus alba x Populus tremula var. glandulosa)
- expression of PagREV (PagREV; [3]): significantly reduced
- expression of PagREV (PagREV; [4]): no significant reduction
- length of adventitious roots (84K poplar): significant increase
- number of adventitious roots (84K poplar): significant increase
- FC_T1 miPEP/CK, ABCB9 (Pag_G_024492) ([1]; T1 stage (6 DAC), miPEP vs CK): −1.07*
- FC_T1 miPEP/CK, CKX3 (Pag_A_037490) ([1]; T1 stage (6 DAC), miPEP vs CK): 4.85*
- FC_T1 miPEP/CK, GH3.10 (Pag_A_034334) ([1]; T1 stage (6 DAC), miPEP vs CK): −2.92*
- FC_T1 miPEP/CK, GH3.10 (Pag_G_015269) ([1]; T1 stage (6 DAC), miPEP vs CK): −1.67**
- FC_T1 miPEP/CK, GH3.10 (Pag_G_025244) ([1]; T1 stage (6 DAC), miPEP vs CK): −4.42*
- FC_T1 miPEP/CK, LOG5 (Pag_G_021773) ([1]; T1 stage (6 DAC), miPEP vs CK): −1.91*
- FC_T1 miPEP/NSP, ABCB9 (Pag_G_024492) ([1]; T1 stage (6 DAC), miPEP vs NSP): −0.72
- FC_T1 miPEP/NSP, CKX3 (Pag_A_037490) ([1]; T1 stage (6 DAC), miPEP vs NSP): 2.61
- FC_T1 miPEP/NSP, GH3.10 (Pag_A_034334) ([1]; T1 stage (6 DAC), miPEP vs NSP): −2.2
- FC_T1 miPEP/NSP, GH3.10 (Pag_G_015269) ([1]; T1 stage (6 DAC), miPEP vs NSP): −1.21*
- FC_T1 miPEP/NSP, GH3.10 (Pag_G_025244) ([1]; T1 stage (6 DAC), miPEP vs NSP): −3.64
- FC_T1 miPEP/NSP, LOG5 (Pag_G_021773) ([1]; T1 stage (6 DAC), miPEP vs NSP): −2.14*
- FC_T2 miPEP/CK, CKI1 (Pag_A_024550) ([1]; T2 stage (9 DAC), miPEP vs CK): 1.02**
- FC_T2 miPEP/CK, CKI1 (Pag_G_014127) ([1]; T2 stage (9 DAC), miPEP vs CK): 0.93*
- FC_T2 miPEP/CK, CKX1 (Pag_G_016517) ([1]; T2 stage (9 DAC), miPEP vs CK): −1.17
- FC_T2 miPEP/CK, TAA1 (Pag_G_035628) ([1]; T2 stage (9 DAC), miPEP vs CK): 0.74
- FC_T2 miPEP/CK, TAA1 (Pag_G_035629) ([1]; T2 stage (9 DAC), miPEP vs CK): 0.78
- FC_T2 miPEP/NSP, CKI1 (Pag_A_024550) ([1]; T2 stage (9 DAC), miPEP vs NSP): 1.11**
- FC_T2 miPEP/NSP, CKI1 (Pag_G_014127) ([1]; T2 stage (9 DAC), miPEP vs NSP): 1.14**
- FC_T2 miPEP/NSP, CKX1 (Pag_G_016517) ([1]; T2 stage (9 DAC), miPEP vs NSP): −2.19*
- FC_T2 miPEP/NSP, TAA1 (Pag_G_035628) ([1]; T2 stage (9 DAC), miPEP vs NSP): 1.72*
- FC_T2 miPEP/NSP, TAA1 (Pag_G_035629) ([1]; T2 stage (9 DAC), miPEP vs NSP): 1.49**
- expression of genes encoding auxin transport proteins (PIN, ABCB, PIN-LIKES) ([1]; T3 stage): significantly increased
- FC_T3 miPEP/CK, ABCB8 (Pag_A_020924) ([1]; T3 stage (12 DAC), miPEP vs CK): −1.18**
- FC_T3 miPEP/CK, ABCB11 (Pag_A_005381) ([1]; T3 stage (12 DAC), miPEP vs CK): 2.40**
- FC_T3 miPEP/CK, ABCB11 (Pag_A_010928) ([1]; T3 stage (12 DAC), miPEP vs CK): 1.90**
- FC_T3 miPEP/CK, ABCB11 (Pag_G_007723) ([1]; T3 stage (12 DAC), miPEP vs CK): 2.08**
- FC_T3 miPEP/CK, ABCB15 (Pag_A_017535) ([1]; T3 stage (12 DAC), miPEP vs CK): 1.05**
- FC_T3 miPEP/CK, ABCB15 (Pag_G_028009) ([1]; T3 stage (12 DAC), miPEP vs CK): 1.21**
- FC_T3 miPEP/CK, ABCB25 (Pag_A_009324) ([1]; T3 stage (12 DAC), miPEP vs CK): 1.18
- FC_T3 miPEP/CK, ARF11 (Pag_G_003815) ([1]; T3 stage (12 DAC), miPEP vs CK): −1.75**
- FC_T3 miPEP/CK, IAA29 (Pag_G_007396) ([1]; T3 stage (12 DAC), miPEP vs CK): −0.94*
- FC_T3 miPEP/CK, LOG1 (Pag_A_016041) ([1]; T3 stage (12 DAC), miPEP vs CK): −2.72**
- FC_T3 miPEP/CK, LOG3 (Pag_G_010191) ([1]; T3 stage (12 DAC), miPEP vs CK): −1.55
- FC_T3 miPEP/CK, PILS3 (Pag_A_012930) ([1]; T3 stage (12 DAC), miPEP vs CK): 4.74*
- FC_T3 miPEP/CK, PILS7 (Pag_G_005929) ([1]; T3 stage (12 DAC), miPEP vs CK): 0.96**
- FC_T3 miPEP/CK, PIN7 (Pag_A_015236) ([1]; T3 stage (12 DAC), miPEP vs CK): 1.33**
- FC_T3 miPEP/CK, PIN8 (Pag_A_008558) ([1]; T3 stage (12 DAC), miPEP vs CK): −1.07*
- FC_T3 miPEP/CK, PIN8 (Pag_G_019315) ([1]; T3 stage (12 DAC), miPEP vs CK): 1.02**
- FC_T3 miPEP/NSP, ABCB8 (Pag_A_020924) [1, 5]: −0.71
- FC_T3 miPEP/NSP, ABCB11 (Pag_A_005381) [1, 5]: 1.34**
- FC_T3 miPEP/NSP, ABCB11 (Pag_A_010928) [1, 5]: 1.13*
- FC_T3 miPEP/NSP, ABCB11 (Pag_G_007723) [1, 5]: 1.34*
- FC_T3 miPEP/NSP, ABCB15 (Pag_A_017535) [1, 5]: 1.11**
- FC_T3 miPEP/NSP, ABCB15 (Pag_G_028009) [1, 5]: 1.27**
- FC_T3 miPEP/NSP, ABCB25 (Pag_A_009324) [1, 5]: 3.26*
- FC_T3 miPEP/NSP, ARF11 (Pag_G_003815) [1, 5]: −1.14*
- FC_T3 miPEP/NSP, IAA29 (Pag_G_007396) [1, 5]: −1.21**
- FC_T3 miPEP/NSP, LOG1 (Pag_A_016041) [1, 5]: −2.28*
- FC_T3 miPEP/NSP, LOG3 (Pag_G_010191) [1, 5]: −1.86*
- FC_T3 miPEP/NSP, PILS3 (Pag_A_012930) [1, 5]: −2.93
- FC_T3 miPEP/NSP, PILS7 (Pag_G_005929) [1, 5]: 1.03**
- FC_T3 miPEP/NSP, PIN7 (Pag_A_015236) [1, 5]: 1.08**
- FC_T3 miPEP/NSP, PIN8 (Pag_A_008558) [1, 5]: −0.94
- FC_T3 miPEP/NSP, PIN8 (Pag_G_019315) [1, 5]: 1.16**
- expression of PagCKI1 (cytokinin signaling) ([1]; miPEP-treated samples): upregulated
- expression of PagGH3 (auxin conjugation) ([1]; miPEP-treated samples): downregulated
- expression of auxin synthesis gene PagTAA1 ([1]; miPEP-treated samples): significantly upregulated
- expression of cytokinin synthesis gene PagLOG ([1]; miPEP-treated samples): significantly downregulated
- expression of pri-miR166i (pri-miR166i): did not result in significant changes
- differentially expressed genes (DEGs) ([2]; T1 stage): 114
- differentially expressed genes (DEGs) ([2]; T2 stage): 130
- differentially expressed genes (DEGs) ([2]; T3 stage): 547
- downregulated genes ([2]; across all three stages): 139
- upregulated genes ([2]; across all three stages): 552
- expression of genes involved in cellulose and lignin biosynthesis (PagCSLD4, PagCAD7, PagCOBL1, PagPAL2) ([2]; miPEP-treated samples, root transcriptome): upregulated
- expression of PagHB8 (PagHB8; [3]): significantly reduced
- expression of PagHB8 (PagHB8; [4]): no significant reduction
- expression of miR166i (miR166i; 5 μM in MS medium, stem explants, 24 hours, vs the three control treatments): significantly enhanced
- miR166i expression (miR166i; T1, T2 and T3 stages (6, 9, 12 days after culture), vs CK and NSP): significant enhancement
